From patent US20170198027A1 (priority 2012, published 2017)

System: 6-OHDA lesioned rat
Assay: 6-OHDA lesioned rat model of Parkinson's disease (cylinder, adjusting step, rotation, TH staining)
Type: in vivo
Settings: prophylactic, high and moderate groups vs vehicle, trend
Method: 1. Animals: male SO rats were purchased from Shanghai Laboratory Animal Center (SLAC). They were housed under 21-23 OC, with 12 h light-dark life cycle. Food and water were given ad libitum.
2. 6uOHDA lesion: Rats were anesthetized with 60 mg/kg sodium pentobarbital. They were stereotaxic injected with total dose of 20 pg of fresh prepared 6-OHDA (dissolved in saline containing 0.05% ascorbic acid, calculated as free base) into tvvo sites of the left striatum, using the following coordinates (in mm relative to Bregma): AP+i 0.0, L −2.5, DV −5.0; AP −0.4, L −4.0, DV −5.5. The injection rate was i pi/min and a total of 2 iJI was injected at each site. The needle was left in place for 3 min before retracting.
3. Cylinder test: Rats were placed in a transparent cylinder (22 cm in diameter and 30 cm height). Animal would rear and support its body with one or both of its forelimbs. […] Each behavioral was expressed as percent use of left, right or both limb(s) relative to the total number.
4. […] The number of adjusting steps of each left and right forelimbs on both directions was recorded individually. […]
6. […] Number of positively stained cells in the left and right sides of SN in each section was counted to make the summation. The ratio of left/right was calculated.
7. Statistic analysis: Data were expressed as mean±SEI\tl and analyzed with ANOVA followed by Tukey test. […]

human Apoiipoprotein AI, injection [APOA1]
neuron count, damage caused by 6-OHDA lesion: reduce the damage caused by 6-OHDA lesion
